From patent publication US12570603B2, “FABP4/5 inhibitors, methods of use and methods of making” (Novius Therapeutics, LLC, priority 2021, dated 2026) come the findings set out here.

One assay has as its target T1, FABP4 (Homo sapiens, UniProt P15090).
T1 construct: made in house
Kind of assay: FABP binding assay by fluorescence titration (ANS competition). The note with it: fluorescence competition with ANS; read-out: FABP4 binding. How it is done:
(§1) This example illustrates a binding assay study used to determine the binding affinity of the various inhibitor compounds disclosed herein with the various FABPs: FABP3, FABP4, FABP5 and FABP7.
(§2) Binding assays for FABP3, FABP4, FABP5 and FABP7 were carried out by fluorescence titrations. FABPs were bacterially expressed and purified and the equilibrium dissociation constants (Kd) that characterize their interactions with different compounds were measured by fluorescence competition assays. The method entails two steps as described in e.g., Lin, Q. et al., “Ligand selectivity of the peroxisome proliferator-activated receptor alpha,” Biochemistry 38, 185-190, doi:10.1021/bi9816094 bi9816094 [pii](1999). In the first step, Kd for the association of the protein with the fluorescent fatty acid probe ANS was measured. Protein ([…]) was titrated with ANS from a concentrated solution in DMSO. Ligand binding was monitored by following the increase in the fluorescence of the ligand upon binding to the protein, and Kd for the association of ANS with the each FABP was computed from titration curves as described in e.g., Norris, A. W. & Li, E., “Fluorometric titration of the CRABPs,” Methods Mol Biol 89, 123-139 (1998)). Kds for binding of non-fluorescent ligands were then measured by monitoring their ability to displace ANS in the binding pocket of the protein. Each FABP was pre-complexed with ANS at 1:1 molar ratio and titrated with the different compounds whose binding was reflected by a decrease in probe fluorescence. Kds were extracted from the EC50 of the competition curve and the measured Kd for ANS.
(§3) Binding assays for FABP3, FABP4, FABP5 and FABP7 were carried out by fluorescence titrations as described in Example 16.

The target in a further assay is T2, FABP5 (Homo sapiens, UniProt Q01469).
T2 construct: made in house
T2 sequence (Q01469 whole entry, species assumed): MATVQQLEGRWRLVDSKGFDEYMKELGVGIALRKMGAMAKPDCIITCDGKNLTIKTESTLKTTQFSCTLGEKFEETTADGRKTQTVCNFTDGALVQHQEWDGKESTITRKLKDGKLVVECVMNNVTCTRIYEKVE
The assay is described as above. The conditions noted are these: fluorescence competition with ANS; read-out: FABP5 binding. How it is done:
as §1, §2, §3

The test system of another assay is MDA-MB-157. Nature of the assay: Proliferation assay (Incucyte confluency, 4 days). It counts as cell-based, human. The note with it: MDA-MB-157, 4 days. How it is done:
(§4) COS-7, MDA-MB-231, HepG2, LX-2, 3T3-L1, NPG, and MCF7 were cultured in Dulbecco's modified Eagle's medium (DMEM) supplemented with 10% fetal bovine serum (Invitrogen Life Sciences, Carlsbad, CA). MDA-MB-157 and MB-549 cells were cultured in L-Glutamine containing RPMI medium supplemented with 10% fetal calf serum (Invitrogen Life Sciences, Carlsbad, CA). For proliferation assays, 2000 cells were plated in each well of 96-well plate. The next day cells were treated with compounds and incubated in Incucyte for 4 days. Images taken every 4 hours for the duration of the time were analyzed to calculate percentage of confluency in response to the treatments.
(§5) The TNBC line MB-231 was used to calculate the efficacy of compounds B104, B106, B110, B116, and B118 in inhibiting proliferation of the cancer cells. Cells were treated with serial dilution of the compounds or the known FABP5/7 inhibitor SBF-I26 and proliferation was measured in Incucyte by calculating percentage of confluency every 4 hours over 4 days. […] The EC50 for each compound was calculated by fitting the percentage of inhibition vs. the logarithmic transformation of the used concentrations (FIG. 37B and FIG. 37D). Additionally, the effect of B116 and B118 was also tested on proliferation of the human TNBC lines MDA-MB-157 (FIG. 37E) and MB-549 (FIG. 37F).

The test system of a further assay is MB-549. Nature of the assay: Proliferation assay (Incucyte confluency, 4 days). The conditions noted are these: MB-549, 4 days. It counts as cell-based, human. How it is done: as §4, §5
The next assay has as its system HepG2 cells. Kind of assay: Lipid uptake assay, oleic acid, Nile Red (steatosis model). It counts as cell-based, human. The note with it: OA 1 mM 24 h, compound 4 h before. How it is done: 2) Hepg2 cells: 5000 cells were plated in 96-well plate. The next day cells were treated with tested compounds for 4 hours and then treated with 1 mM oleic acid for additional 24 hours. Cells were then stained with Nile Red and Dapi and lipid content was quantified using Cytation5 (Agilent).
2) Hepg2 cells: 5000 cells were plated in 96-well plate. The next day cells were treated with tested compounds for 4 hours and then treated with 1 mM oleic acid for additional 24 hours. Cells were then stained with Nile Red and Dapi and lipid content was quantified.

The test system of assay [1] is NPG human neuroblastoma cells. Kind of assay: Neuroblastoma proliferation assay with or without all-trans retinoic acid. The conditions noted are these: for proliferation of neuroblastoma cells in combination with atRA: combined with atRA; for proliferation of neuroblastoma cells: compound alone, 4 days. The class given is cell-based. As to the method:
as §4
Activation of PPARβ by atRA shifts the signaling of this vitamin from its cognate receptor RAR that is known to have anti-carcinogenic activities in multiple cancers to the pro-carcinogenic PPARβ. […] Accordingly, NB, human NPG cells were used to test the effect of FABP5 inhibitors on cells' proliferation in combination with atRA. Cells were treated with either B104 or B108 in the presence or absence of atRA.

Another assay deals with PPARδ. Kind of assay: Transactivation assay, PPRE luciferase reporter in COS-7 cells. The class given is cell-based. The note with it: 5 μM, COS7 cells, FIG. 36A. How it is done: COS-7 were cultured in 6-well plates and co-transfected with either a luciferase reporter driven by 3 copies of a PPRE and expression vector for either PPARδ, PPARα or PPARγ together with a vector harboring cDNA for β-galactosidase, serving as a transfection control. To test whether FABP4 or FABP5 mediate activation of their cognate receptors PPARγ and PPARδ, respectively, cells were also co-transfected with a plasmid harboring sequence of either FABP4 or FABP5. 18 h post-transfection, cells were placed in a serum-free medium and treated with agonist/compound. 18 h. later, cells were lysed, luciferase activity was assayed (Promega, WI, USA) and corrected for transfection efficiency by the activity of β-galactosidase.
COS-7 were cultured in 6-well plates and co-transfected with either a luciferase reporter driven by 3 copies of a PPRE and expression vector for either PPARδ, PPARα or PPARγ together with a vector harboring cDNA for β-galactosidase, serving as a transfection control. 18 h. post-transfection, cells were placed in a serum-free medium and treated with agonist/compound. 18 h. later, cells were lysed, luciferase activity was assayed (Promega, WI, USA) and corrected for transfection efficiency by the activity of β-galactosidase.
A general note: Reporter assays use an easily measured gene product as a stand-in for the process of interest.

The test system of a further assay is MB-231 cells. Nature of the assay: Proliferation assay (Incucyte confluency, 4 days). The class given is cell-based. The conditions noted are these: MB-231, serial dilution. As to the method:
as §4, §5

T1 sequence (P15090 whole entry, species assumed): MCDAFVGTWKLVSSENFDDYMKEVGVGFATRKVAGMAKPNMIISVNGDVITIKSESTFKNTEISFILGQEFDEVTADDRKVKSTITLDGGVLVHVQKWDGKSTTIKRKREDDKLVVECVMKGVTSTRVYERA

With `CC(C)Oc1cc(NC(=O)CC(C)(C)CC(=O)O)c(Cl)cc1Cl` [Compound B116, 5-((2,4-dichloro-5-isopropoxyphenyl)amino)-3,3-dimethyl-5-oxopentanoic acid], the Kd stood at 90 nM at FABP4 and 3 nM at FABP5. Further, the proliferation result with MDA-MB-157 and in the assay with MB-549 was “inhibited proliferation of both TNBC lines” throughout. Also, the “uptake of lipid into hepatic cells (Nile Red)” value with HepG2 cells is recorded as “markedly inhibited”. Moreover, the “proliferation of neuroblastoma cells in combination with atRA” value in assay [1] is reported as “sensitize cells to all-trans retinoic acid treatments”. In addition, the “proliferation of neuroblastoma cells” value in assay [1] is “inhibit growth of neuroblastoma”. Also, the “activation of transcription by PPARδ” value in the assay with PPARδ is listed as “do not Activate Transcription”. The “suppression of growth of TNBC cells compared with SBF-I26” value with MB-231 cells is “Suppress Growth of TNBC Cells More Effectively than the Commercially Available Inhibitor SBF-I26”.

As to `CC(C)Oc1cc(NC(=O)CC2(CC(=O)O)CCCC2)c(Cl)cc1Cl` [Compound B118, 2-(1-(2-((2,4-dichloro-5-isopropoxyphenyl)amino)-2-oxoethyl)cyclopentyl)acetic acid], the Kd at FABP4 came out at 78 nM; on FABP5, 2 nM. For the same compound, the proliferation entry with MDA-MB-157 and with MB-549 was “inhibited proliferation of both TNBC lines” throughout. Moreover, the “uptake of lipid into hepatic cells (Nile Red)” value in the assay with HepG2 cells was “markedly inhibited”. Further, in assay [1], the “proliferation of neuroblastoma cells in combination with atRA” value is on record as “sensitize cells to all-trans retinoic acid treatments”. In addition, the “proliferation of neuroblastoma cells” value in assay [1] is reported as “inhibit growth of neuroblastoma”. The “activation of transcription by PPARδ” value with PPARδ was “do not Activate Transcription”. Also, in the assay with MB-231 cells, the “suppression of growth of TNBC cells compared with SBF-I26” value was “Suppress Growth of TNBC Cells More Effectively than the Commercially Available Inhibitor SBF-I26”.
